The target of assay [1] is T1, baculovirus-expressed ALK (Homo sapiens, UniProt Q9UM73).
T1 construct: host or cells: baculovirus expression system
As to the kind of experiment: ALK Kinase Assay (ELISA-type, time-resolved fluorescence). The class given is biochemical. An outline of the steps:
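Wells were coated with phospholipase C-γ at 10 μg/mL in Tris-buffered saline. Adding 30 ng/ml enzyme started the reaction, which ran at 37° C for 15 minutes before Eu-N1 PT66 antibody detection. Percent inhibition versus log10 concentration gave IC50 by variable-slope fit.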
A general note: ELISA stands for enzyme-linked immunosorbent assay.

Assay [2] has as its target T2, c-Met (cytoplasmic domain) (Homo sapiens, UniProt P08581).
T2 construct: 10 ng/mL c-Met (cytoplasmic domain, Invitrogen Corporation #PV3143); purchased Invitrogen Corporation PV3143
In words: c-Met Kinase Assay (same methods as for ALK, with modifications). The class given is biochemical. An outline of the steps: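 IC50 values were fitted by variable-slope sigmoidal regression of percent inhibition against log compound concentration. Phosphorylation was read with Eu-N1 PT66 antibody after a 15 min, 37 °C reaction. The reaction was initiated with 10 ng/mL c-Met cytoplasmic domain on wells coated with 10 μg/mL PLC-γ in TBS.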

[3] abbreviates: 1 μM ATP (Km level), read-out: ALK Activity (ALK Kinase Inhibition, IC50).
Where [4] appears, read: 1 μM ATP (Km level), read-out: cMet Activity (c-Met Kinase Inhibition, IC50).
Where [5] appears, read: ALK kinase inhibition, 1 μM ATP (Km level), read-out: ALK Activity.
The mark [6] stands for this setting: c-Met kinase inhibition, 1 μM ATP (Km level), read-out: cMet Activity.
[7] abbreviates: 1 μM ATP (Km level), 30 ng/ml ALK, 37° C., 15 minutes, read-out: ALK Activity (ALK kinase inhibition, IC50 class).
[8] abbreviates: 1 μM ATP (Km level), 10 ng/mL c-Met, read-out: cMet Activity (c-Met kinase inhibition, IC50 class).
Setting [9] is: ALK kinase inhibition, 1 μM ATP, read-out: ALK Activity.
The mark [10] stands for this setting: c-Met kinase inhibition, 1 μM ATP, read-out: cMet Activity.

Like-named read-outs stand apart in the source and are kept apart here.

IC50 data for 22 compounds are collected here from patent US8148391B2 (Cephalon, Inc., priority 2006, dated 2012).

T1 sequence (Q9UM73 19-1620): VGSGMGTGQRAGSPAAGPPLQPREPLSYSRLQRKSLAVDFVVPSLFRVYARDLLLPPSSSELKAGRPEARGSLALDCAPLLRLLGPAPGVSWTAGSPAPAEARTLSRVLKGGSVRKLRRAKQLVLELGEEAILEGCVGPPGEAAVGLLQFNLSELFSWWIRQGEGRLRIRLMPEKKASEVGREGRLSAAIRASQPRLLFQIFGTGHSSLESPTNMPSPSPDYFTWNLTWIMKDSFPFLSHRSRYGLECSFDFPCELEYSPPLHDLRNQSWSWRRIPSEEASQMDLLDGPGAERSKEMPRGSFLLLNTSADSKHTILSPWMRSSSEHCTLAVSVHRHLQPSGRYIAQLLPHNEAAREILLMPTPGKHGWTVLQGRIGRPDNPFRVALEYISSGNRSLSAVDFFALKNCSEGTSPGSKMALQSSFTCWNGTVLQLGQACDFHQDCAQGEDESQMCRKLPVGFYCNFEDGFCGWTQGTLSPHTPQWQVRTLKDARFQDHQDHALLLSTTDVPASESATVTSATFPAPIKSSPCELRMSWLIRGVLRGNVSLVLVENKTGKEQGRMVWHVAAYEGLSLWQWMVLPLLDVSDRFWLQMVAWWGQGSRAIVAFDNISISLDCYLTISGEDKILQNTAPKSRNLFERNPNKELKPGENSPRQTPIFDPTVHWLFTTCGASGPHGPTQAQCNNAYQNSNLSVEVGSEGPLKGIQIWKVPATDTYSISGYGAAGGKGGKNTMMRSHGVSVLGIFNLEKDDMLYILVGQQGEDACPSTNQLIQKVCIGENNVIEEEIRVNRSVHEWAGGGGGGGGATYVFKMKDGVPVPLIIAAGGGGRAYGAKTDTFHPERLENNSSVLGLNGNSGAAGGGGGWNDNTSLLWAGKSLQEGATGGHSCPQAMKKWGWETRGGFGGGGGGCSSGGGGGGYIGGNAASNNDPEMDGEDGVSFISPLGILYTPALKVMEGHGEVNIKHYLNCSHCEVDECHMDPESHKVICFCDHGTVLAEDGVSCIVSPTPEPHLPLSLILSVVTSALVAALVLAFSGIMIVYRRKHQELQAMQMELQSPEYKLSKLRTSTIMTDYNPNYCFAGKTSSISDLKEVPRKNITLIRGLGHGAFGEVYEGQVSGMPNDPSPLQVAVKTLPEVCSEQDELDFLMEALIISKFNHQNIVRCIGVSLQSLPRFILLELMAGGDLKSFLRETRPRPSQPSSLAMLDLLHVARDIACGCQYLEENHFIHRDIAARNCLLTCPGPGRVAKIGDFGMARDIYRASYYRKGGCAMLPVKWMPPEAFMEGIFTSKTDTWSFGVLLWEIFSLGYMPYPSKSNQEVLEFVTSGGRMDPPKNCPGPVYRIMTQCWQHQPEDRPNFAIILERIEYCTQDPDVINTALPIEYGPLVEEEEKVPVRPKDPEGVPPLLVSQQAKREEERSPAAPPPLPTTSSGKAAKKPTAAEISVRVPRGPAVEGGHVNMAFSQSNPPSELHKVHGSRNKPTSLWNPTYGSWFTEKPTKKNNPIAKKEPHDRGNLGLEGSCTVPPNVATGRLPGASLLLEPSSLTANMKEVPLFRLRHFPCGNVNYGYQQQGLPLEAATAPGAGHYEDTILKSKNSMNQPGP
T2 sequence (P08581 956-1390 limits assumed): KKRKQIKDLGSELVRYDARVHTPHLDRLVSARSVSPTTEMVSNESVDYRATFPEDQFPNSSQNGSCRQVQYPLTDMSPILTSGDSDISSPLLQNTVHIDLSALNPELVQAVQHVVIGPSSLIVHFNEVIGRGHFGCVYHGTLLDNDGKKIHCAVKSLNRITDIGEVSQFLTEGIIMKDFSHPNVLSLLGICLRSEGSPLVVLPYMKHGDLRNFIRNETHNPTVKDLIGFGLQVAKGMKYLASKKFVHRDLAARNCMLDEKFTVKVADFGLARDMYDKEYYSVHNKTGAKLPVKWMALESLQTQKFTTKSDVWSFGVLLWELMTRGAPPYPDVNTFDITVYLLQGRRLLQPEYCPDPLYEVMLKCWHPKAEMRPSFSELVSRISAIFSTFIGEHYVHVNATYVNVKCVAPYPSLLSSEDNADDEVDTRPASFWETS

Take `COc1c(Nc2ncc(Cl)c(Nc3ccccc3S(=O)(=O)N3CCCC3)n2)ccc2c1CCCC(NCCO)C2` (centres unmarked) [Example 964, 2-(2-{5-Chloro-4-[2-(pyrrolidine-1-sulfonyl)-phenylamino]-pyrimidin-2-ylamino}-1-methoxy-6,7,8,9-tetrahydro-5H-benzocyclohepten-6-ylamino)-ethanol]: the IC50 was below 100 nM in assay [1] (setting [3]) and above 10000 nM in assay [2] (setting [4]).
Take `CCN1CCc2ccc(Nc3ncc(Cl)c(Nc4ccccc4C(=O)NC)n3)c(OC)c2CC1` [Example 234, 2-[5-Chloro-2-(3-ethyl-6-methoxy-2,3,4,5-tetrahydro-1H-benzo[d]azepin-7-ylamino)-pyrimidin-4-ylamino]-N-methyl-benzamide]: the IC50 is below 100 nM in assay [1] (setting [5]) and above 10000 nM in assay [2] (setting [6]).
On to `COc1cc2c(cc1Nc1ncc(Cl)c(Nc3ccc(N4CCOCC4)cc3-n3cccn3)n1)CCN(CC(=O)N(C)C)CC2` [Example 626, 2-{7-[5-Chloro-4-(4-morpholin-4-yl-2-pyrazol-1-yl-phenylamino)-pyrimidin-2-ylamino]-8-methoxy-1,2,4,5-tetrahydro-benzo[d]azepin-3-yl}-N,N-dimethyl-acetamide], for which the results for the IC50 in assay [1] (setting [3]) and in assay [2] (setting [4]) were below 100 nM and above 10000 nM, respectively.
In the case of `COc1cc2c(cc1Nc1ncc(Cl)c(N[C@H]3[C@@H](C(N)=O)[C@@H]4C=C[C@H]3C4)n1)CCC(NCCO)CC2` (single isomer, unassigned) [Example 1096], the IC50 in assay [1] (setting [7]) was below 100 nM; in assay [2] (setting [8]) it was above 10000 nM.
With `Cc1ccnc(-c2ccccc2Nc2nc(Nc3ccc4c(c3)C(C)(C)CCC(=O)N4)ncc2Cl)c1` [Example 1001, 7-{5-Chloro-4-[2-(4-methyl-pyridin-2-yl)-phenylamino]-pyrimidin-2-ylamino}-5,5-dimethyl-1,3,4,5-tetrahydro-benzo[b]azepin-2-one], the IC50 was 100 to 1000 nM in assay [1] (setting [3]) and above 10000 nM in assay [2] (setting [4]).
For `CCN1C(=O)CN(CCOC)Cc2cc(OC)c(Nc3ncc(Cl)c(Nc4ccc(N5CCOCC5)cc4OC)n3)cc21` [Example 726, 8-[5-Chloro-4-(2-methoxy-4-morpholin-4-yl-phenylamino)-pyrimidin-2-ylamino]-1-ethyl-7-methoxy-4-(2-methoxy-ethyl)-1,3,4,5-tetrahydro-benzo[e][1,4]diazepin-2-one], in that order: 100 to 1000 nM and above 10000 nM.
As to `NC(=O)[C@@H]1[C@H](Nc2nc(Nc3ccc4c(c3)CCC(NCC(F)F)CC4)ncc2Cl)[C@H]2C=C[C@@H]1C2` (stereo partly drawn) [Example 665, (1S,2S,3R,4R)-3-{5-Chloro-2-[7-(2,2-difluoro-ethylamino)-6,7,8,9-tetrahydro-5H-benzocyclohepten-2-ylamino]-pyrimidin-4-ylamino}-bicyclo[2.2.1]hept-5-ene-2-carboxylic acid amide], the IC50 in assay [1] (setting [3]) is below 100 nM; in assay [2] (setting [4]), 100 to 1000 nM.
Consider `CCN1C(=O)CN(S(C)(=O)=O)Cc2ccc(Nc3ncc(Cl)c(Nc4ccsc4C(=O)NC)n3)cc21` [Example 1872, 3-[5-Chloro-2-(1-ethyl-4-methanesulfonyl-2-oxo-2,3,4,5-tetrahydro-1H-benzo[e][1,4]diazepin-8-ylamino)-pyrimidin-4-ylamino]-thiophene-2-carboxylic acid methylamide], for which the IC50 in assay [1] (setting [9]) and in assay [2] (setting [10]) was 1000 to 10000 nM in each case.
`COc1cc2c(cc1Nc1ncc(C(F)(F)F)c(Nc3ccccc3S(=O)(=O)C(C)C)n1)CCN(CC(=O)N(C)C)CC2` [Example 932, 2-(7-Methoxy-8-{4-[2-(propane-2-sulfonyl)-phenylamino]-5-trifluoromethyl-pyrimidin-2-ylamino}-1,2,4,5-tetrahydro-3-benzazepin-3-yl)-N,N-dimethyl-acetamide]: the IC50 is 1000 to 10000 nM in assay [1] (setting [3]) and above 10000 nM in assay [2] (setting [4]).
Take `CC(=O)c1ccccc1Nc1nc(Nc2ccc3c(c2)CCCC(=O)N3C)ncc1Cl` [Example 351, 7-[4-(2-Acetyl-phenylamino)-5-chloro-pyrimidin-2-ylamino]-1-methyl-1,3,4,5-tetrahydro-benzo[b]azepin-2-one]: the IC50 in assay [1] (setting [5]) and in assay [2] (setting [6]) was below 100 nM throughout.
As to `COCCN1CCCC(C)(C)c2ccc(Nc3ncc(Cl)c(Nc4ccc(N5CCOCC5)cc4OC)n3)cc21` [Example 1601, 5-Chloro-N*2*-[1-(2-methoxy-ethyl)-5,5-dimethyl-2,3,4,5-tetrahydro-1H-benzo[b]azepin-8-yl]-N*4*-(2-methoxy-4-morpholin-4-yl-phenyl)-pyrimidine-2,4-diamine], the IC50 is 100 to 1000 nM in assay [1] (setting [9]) and above 10000 nM in assay [2] (setting [10]).
With `COc1cc2c(cc1Nc1ncc(Cl)c(N[C@@H]3CCCC[C@H]3NS(C)(=O)=O)n1)CCC(NCC(F)F)CC2` (single isomer, unassigned) [Example 1057], the results for the IC50 in assay [1] (setting [7]) and in assay [2] (setting [8]) were below 100 nM and above 10000 nM, respectively.
For `COCCN(C)C1CCc2ccc(Nc3ncc(Cl)c(N[C@@H]4CCCC[C@H]4NS(C)(=O)=O)n3)c(OC)c2CC1` (stereo partly drawn) [Example 702, N-[(1R,2R)-2-(5-Chloro-2-{1-methoxy-7-[(2-methoxy-ethyl)-methyl-amino]-6,7,8,9-tetrahydro-5H-benzocyclohepten-2-ylamino}-pyrimidin-4-ylamino)-cyclohexyl]-methanesulfonamide], the IC50 in assay [1] (setting [3]) was below 100 nM; in assay [2] (setting [4]), above 10000 nM.
Turning to `Cc1cccnc1-c1ccccc1Nc1nc(Nc2ccc3c(c2)CCC(N2CCOCC2)CC3)ncc1Cl` (centres unmarked) [Example 1020, 5-Chloro-N*4*-[2-(3-methyl-pyridin-2-yl)-phenyl]-N*2*-(7-morpholin-4-yl-6,7,8,9-tetrahydro-5H-benzocyclohepten-2-yl)-pyrimidine-2,4-diamine], the IC50 in assay [1] (setting [7]) was below 100 nM; in assay [2] (setting [8]) it was 1000 to 10000 nM.
For the compound `CCN1CCc2ccc(Nc3ncc(Cl)c(N[C@H]4CCCC[C@H]4C(=O)NC)n3)cc2CC1` (relative stereo) [Example 200, cis-2-[5-Chloro-2-(3-ethyl-2,3,4,5-tetrahydro-1H-benzo[d]azepin-7-ylamino)-pyrimidin-4-ylamino]-cyclohexanecarboxylic acid methylamide], the IC50 in assay [1] (setting [5]) was below 100 nM; in assay [2] (setting [6]), 100 to 1000 nM.
For `CS(=O)(=O)N[C@@H]1CCCC[C@H]1Nc1nc(Nc2ccc3c(c2)CNCCO3)ncc1Cl` [Example 524, N-{(1R,2R)-2[5-Chloro-2-(2,3,4,5-tetrahydro-benzo[f]oxazepin-7-ylamino)-pyrimidin-4-ylamino]-cyclohexyl}-methanesulfonamide], the IC50 in assay [1] (setting [3]) was below 100 nM; in assay [2] (setting [4]), 1000 to 10000 nM.
On to `CC(C)[C@@H](Nc1nc(Nc2ccc3c(c2)CC(=O)N(C)CC3)ncc1Cl)C(N)=O` [Example 1822, (R)-2-[5-Chloro-2-(3-methyl-4-oxo-2,3,4,5-tetrahydro-1H-benzo[d]azepin-7-ylamino)-pyrimidin-4-ylamino]-3-methyl-butyramide], for which the IC50 in assay [1] (setting [9]) and in assay [2] (setting [10]) was 1000 to 10000 nM throughout.
On to `C=CCOc1cc(N2CCOCC2)cc(F)c1Nc1nc(Nc2ccc3c(c2)CCOC(=O)N3C)ncc1Cl` [Example 1700, 2-[4-(2-Allyloxy-6-fluoro-4-morpholin-4-yl-phenylamino)-5-chloro-pyrimidin-2-ylamino]-5-methyl-8,9-dihydro-5H-7-oxa-5-aza-benzocyclohepten-6-one], for which the IC50 in assay [1] (setting [9]) is below 100 nM; in assay [2] (setting [10]) it was 1000 to 10000 nM.
For `C#CCNC(=O)c1cccc(F)c1Nc1nc(Nc2ccc3c(c2)NC(=O)CCC3(C)C)ncc1Cl` [Example 1406, 2-[5-Chloro-2-(5,5-dimethyl-2-oxo-2,3,4,5-tetrahydro-1H-benzo[b]azepin-8-ylamino)-pyrimidin-4-ylamino]-3-fluoro-N-prop-2-ynyl-benzamide], the IC50 in assay [1] (setting [7]) is 100 to 1000 nM; in assay [2] (setting [8]) it was below 100 nM.
Take `CS(=O)(=O)N[C@@H]1CCCC[C@H]1Nc1nc(Nc2ccc3c(c2)CCN(C[C@@H](O)C(F)(F)F)CC3)ncc1Cl` [Example 449, N-((1R,2R)-2-{5-Chloro-2-[3-((R)-3,3,3-trifluoro-2-hydroxy-propyl)-2,3,4,5-tetrahydro-1H-benzo[d]azepin-7-ylamino]-pyrimidin-4-ylamino}-cyclohexyl)-methanesulfonamide]: the IC50 in assay [1] (setting [5]) is below 100 nM; in assay [2] (setting [6]), 100 to 1000 nM.
As to `CNC(=O)c1cc(OC)ccc1Nc1nc(Nc2cc3c(cc2OC)CCN(CC(=O)N(C)C)CC3)ncc1Cl` [Example 617, 2-[5-Chloro-2-(3-dimethylcarbamoylmethyl-8-methoxy-2,3,4,5-tetrahydro-1H-benzo[d]azepin-7-ylamino)-pyrimidin-4-ylamino]-5-methoxy-N-methyl-benzamide], the IC50 was below 100 nM in assay [1] (setting [3]) and 1000 to 10000 nM in assay [2] (setting [4]).
For `COc1cc(N2CCOCC2)ccc1Nc1nc(Nc2ccc3c(c2)CCC(NCC(F)F)CC3)ncc1Cl` (centres unmarked) [Example 659, 5-Chloro-N*2*-[7-(2,2-difluoro-ethylamino)-6,7,8,9-tetrahydro-5H-benzocyclohepten-2-yl]-N*4*-(2-methoxy-4-morpholin-4-yl-phenyl)-pyrimidine-2,4-diamine], in that order: below 100 nM and above 10000 nM.
